Measured values as given in patent US8507538B2, “Selective heterocyclic sphingosine 1 phosphate receptor modulators” (Receptos, Inc., priority 2009, dated 2013).
Structures can show the parent of a compound that is named as a salt.

Target: S1P1/EDG1 (Homo sapiens, UniProt P21453)
Assay: S1P1 CRE-bla CHOK1 reporter assay (inhibition of Forskolin induced cAMP)
Type: cell-based
Settings: agonist activity range, Table 2; read-out: S1P1 ACTIVITY
How it was run: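 Stable CRE-bla CHO-K1 clone expressing human S1P1, serum-starved (0.5% stripped serum) 18 h, then treated with compound (10-point curve) plus 2 μM forskolin for 4 h at 37 °C. β-lactamase FRET ratio (458/522 nm) read after 2 h substrate loading; EC50 for inhibition of forskolin-induced cAMP by non-linear regression.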

Sequence of S1P1/EDG1 (P21453 whole entry): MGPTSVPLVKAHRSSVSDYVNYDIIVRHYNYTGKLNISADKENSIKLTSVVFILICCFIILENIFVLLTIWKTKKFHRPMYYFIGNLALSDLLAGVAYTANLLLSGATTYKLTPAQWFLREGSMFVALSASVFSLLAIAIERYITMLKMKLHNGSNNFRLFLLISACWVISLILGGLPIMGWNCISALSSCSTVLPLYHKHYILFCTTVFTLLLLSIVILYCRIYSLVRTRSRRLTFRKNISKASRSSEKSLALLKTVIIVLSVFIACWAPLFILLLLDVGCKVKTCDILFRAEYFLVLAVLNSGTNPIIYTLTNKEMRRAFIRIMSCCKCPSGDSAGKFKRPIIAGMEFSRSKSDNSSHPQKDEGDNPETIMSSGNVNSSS

Compared with `COCCS(=O)(=O)N[C@H]1CCc2c(-c3cnc(-c4ccc(OC(C)C)c(C#N)c4)s3)cccc21` [Compound 116], `CC(C)Oc1ccc(-c2ncc(-c3cccc4c3CCC4NS(=O)(=O)CCO)s2)cc1C#N` (stereo in doubt) [Compound 164, (R)-N-(4-(2-(3-cyano-4-isopropoxyphenyl)thiazol-5-yl)-2,3-dihydro-1H-inden-1-yl)-2-hydroxyethanesulfonamide] is lower in EC50: 500 to 5000 pM for the first, 50 to 500 pM for the second.

`CC(C)Oc1ccc(-c2ncc(-c3cccc4c3CC[C@@H]4NC(=O)N3CC[C@H](O)C3)s2)cc1C#N` [Compound 175] and `CC(C)Oc1ccc(-c2ncc(-c3cccc4c3CC[C@@H]4NC(=O)N3CC[C@@H](O)C3)s2)cc1C#N` [Compound 176] fall in the same range of EC50: 500 to 5000 pM for the first, 500 to 5000 pM for the second.

`CC(C)Oc1ccc(-c2nnc(-c3cccc4c3CCC4NS(C)(=O)=O)s2)cc1C#N` (stereo in doubt) [Compound 34, (R)-N-(4-(5-(3-cyano-4-isopropoxyphenyl)-1,3,4-thiadiazol-2-yl)-2,3-dihydro-1H-inden-1-yl)methanesulfonamide] and `CC(C)Oc1ccc(-c2nnc(-c3cccc4c3CC[C@@H]4NS(=O)(=O)CCO)s2)cc1C#N` [Compound 45, (S)-N-(4-(5-(3-cyano-4-isopropoxyphenyl)-1,3,4-thiadiazol-2-yl)-2,3-dihydro-1H-inden-1-yl)-2-hydroxyethanesulfonamide] fall in the same range of EC50: 50 to 500 pM for the first, 50 to 500 pM for the second.

`CC(C)Oc1ccc(-c2ncc(-c3cccc4c3CC[C@@H]4NC(=O)N3CC(O)C3)s2)cc1C#N` [Compound 171] and `CC(C)Oc1ccc(-c2ncc(-c3cccc4c3CC[C@@H]4NC(=O)N3CCC[C@H](O)C3)s2)cc1C#N` [Compound 198] fall in the same range of EC50: 50 to 500 pM for the first, 50 to 500 pM for the second.

First: CC(C)Oc1ccc(-c2ncc(-c3cccc4c3CC[C@@H]4NCC(=O)N3CC[C@H](O)C3)s2)cc1C#N [Compound 104, 5-(5-((S)-1-((2-((S)-3-hydroxypyrrolidin-1-yl)-2-oxoethyl)amino)-2,3-dihydro-1H-inden-4-yl)thiazol-2-yl)-2-isopropoxybenzonitrile]
Second: CC(C)Oc1ccc(-c2ncc(-c3cccc4c3CC[C@@H]4NCC(=O)N3CCC[C@H](O)C3)s2)cc1C#N [Compound 106]
The EC50 of the first is lower: 500 to 5000 pM for the first, greater than 5000 pM for the second. The first is the more potent here.

Compared with `CC(C)Oc1ccc(-c2nnc(-c3cccc4c3CC[C@H]4NC(=O)N3CCCC3)s2)cc1C#N` [Compound 52], `CC(C)Oc1ccc(-c2ncc(-c3cccc4c3CC[C@@H]4NC(=O)N3CCCC3)s2)cc1C#N` [Compound 173, (S)-N-(4-(2-(3-cyano-4-isopropoxyphenyl)thiazol-5-yl)-2,3-dihydro-1H-inden-1-yl)pyrrolidine-1-carboxamide] is higher in EC50: 50 to 500 pM for the first, 500 to 5000 pM for the second.

`CC(C)Oc1ccc(-c2ncc(-c3cccc4c3CC[C@@H]4NC(=O)N3CCNCC3)s2)cc1C#N` [Compound 189] and `CC(C)Oc1ccc(-c2ncc(-c3cccc4c3CC[C@@H]4NC(=O)N3CC[C@H](N)C3)s2)cc1C#N` [Compound 180] cannot be ordered by EC50: greater than 5000 pM for the first, greater than 5000 pM for the second.

`CC(C)Oc1ccc(-c2ncc(-c3cccc4c3CCC4NCCS(C)(=O)=O)s2)cc1C#N` (stereo in doubt) [Compound 220, (R)-2-isopropoxy-5-(5-(1-((2-(methylsulfonyl)ethyl)amino)-2,3-dihydro-1H-inden-4-yl)thiazol-2-yl)benzonitrile] and `CC(C)Oc1ccc(-c2ncc(-c3cccc4c3CC[C@@H]4NCCS(C)(=O)=O)s2)cc1C#N` [Compound 221, (S)-2-isopropoxy-5-(5-(1-((2-(methylsulfonyl)ethyl)amino)-2,3-dihydro-1H-inden-4-yl)thiazol-2-yl)benzonitrile] fall in the same range of EC50: 50 to 500 pM for the first, 50 to 500 pM for the second.

`CC(C)Oc1ccc(-c2nnc(-c3cccc4c3CC[C@@H]4N)s2)cc1C#N` [Compound 4, (S)-5-(5-(1-amino-2,3-dihydro-1H-inden-4-yl)-1,3,4-thiadiazol-2-yl)-2-isopropoxybenzonitrile hydrochloride] and `CC(C)Oc1ccc(-c2nnc(-c3cccc4c3CCC4N)s2)cc1C#N` (stereo in doubt) [Compound 5, (R)-5-(5-(1-amino-2,3-dihydro-1H-inden-4-yl)-1,3,4-thiadiazol-2-yl) -2 isopropoxybenzonitrile hydrochloride] fall in the same range of EC50: 500 to 5000 pM for the first, 500 to 5000 pM for the second.

`COC(=O)CS(=O)(=O)NC1CCc2c(-c3cnc(-c4ccc(OC(C)C)c(C#N)c4)s3)cccc21` (stereo in doubt) [Compound 154, (R)-methyl 2-(N-(4-(2-(3-cyano-4-isopropoxyphenyl)thiazol-5-yl)-2,3-dihydro-1H-inden-1-yl)sulfamoyl)acetate] and `COC(=O)CCS(=O)(=O)N[C@H]1CCc2c(-c3cnc(-c4ccc(OC(C)C)c(C#N)c4)s3)cccc21` [Compound 156] fall in the same range of EC50: 50 to 500 pM for the first, 50 to 500 pM for the second.

`CC(C)Oc1ccc(-c2ncc(-c3cccc4c3CC[C@@H]4NC(=O)N(C)C)s2)cc1C#N` [Compound 169] and `CC(C)Oc1ccc(-c2ncc(-c3cccc4c3CC[C@@H]4NC(=O)CN(C)C)s2)cc1C#N` [Compound 81] fall in the same range of EC50: 500 to 5000 pM for the first, 500 to 5000 pM for the second.

`CC(C)Oc1ccc(-c2ncc(-c3cccc4c3CCC4N3CCCC3)s2)cc1C#N` (stereo not drawn) [Compound 208] and `CC(C)Oc1ccc(-c2ncc(-c3cccc4c3CCC4N3CC(O)C3)s2)cc1C#N` (stereo not drawn) [Compound 207, 5-(5-(1-(3-hydroxyazetidin-1-yl)-2,3-dihydro-1H-inden-4-yl)thiazol-2-yl)-2-isopropoxybenzonitrile] fall in the same range of EC50: 500 to 5000 pM for the first, 500 to 5000 pM for the second.

Compared with `COCCS(=O)(=O)N[C@H]1CCc2c(-c3nnc(-c4ccc(OC(C)C)c(C#N)c4)s3)cccc21` [Compound 35], `COCC(=O)N[C@H]1CCc2c(-c3nnc(-c4ccc(OC(C)C)c(C#N)c4)s3)cccc21` [Compound 12] is higher in EC50: 50 to 500 pM for the first, 500 to 5000 pM for the second. The first is the more potent here.

`COCC(=O)N[C@H]1CCc2c(-c3cnc(-c4ccc(OC(C)C)c(C#N)c4)s3)cccc21` [Compound 75] and `CC(C)Oc1ccc(-c2ncc(-c3cccc4c3CCC4NCC(=O)O)s2)cc1C#N` (stereo in doubt) [Compound 96, (R)-2-((4-(2-(3-cyano-4-isopropoxyphenyl)thiazol-5-yl)-2,3-dihydro-1H-inden-1-yl)amino)acetic acid] fall in the same range of EC50: 50 to 500 pM for the first, 50 to 500 pM for the second.

`CC(C)Oc1ccc(-c2ncc(-c3cccc4c3CC[C@H]4NS(=O)(=O)CCN3CCC[C@@H](O)C3)s2)cc1C#N` (stereo in doubt) [Compound 143, N-((R)-4-(2-(3-cyano-4-isopropoxyphenyl)thiazol-5-yl)-2,3-dihydro-1H-inden-1-yl)-2-((R)-3-hydroxypiperidin-1-yl)ethanesulfonamide] and `CC(C)Oc1ccc(-c2ncc(-c3cccc4c3CC[C@@H]4NS(=O)(=O)CCN3CC(O)C3)s2)cc1C#N` [Compound 150] fall in the same range of EC50: 500 to 5000 pM for the first, 500 to 5000 pM for the second.

`CCOc1ccc(-c2nnc(-c3cccc4c3CCC4O)s2)cc1OCC` (stereo not drawn) [Compound 3] and `CCOc1ccc(-c2nnc(-c3cccc4c3CC[C@@H]4N)s2)cc1OCC` [Compound 6] fall in the same range of EC50: 500 to 5000 pM for the first, 500 to 5000 pM for the second.

Compared with `CC(C)Oc1ccc(-c2ncc(-c3cccc4c3CC[C@@H]4NC(=O)Cc3ccccc3)s2)cc1C#N` [Compound 83], `CC(C)Oc1ccc(-c2ncc(-c3cccc4c3CCC4O)s2)cc1C#N` (stereo in doubt) [Compound 69, (R)-5-(5-(1-hydroxy-2,3-dihydro-1H-inden-4-yl)thiazol-2-yl)-2-isopropoxy benzonitrile] is lower in EC50: greater than 5000 pM for the first, 50 to 500 pM for the second. The second is the more potent here.

Compared with `CC(C)Oc1ccc(-c2ncc(-c3cccc4c3CC[C@@H]4NC(=O)N3CC[C@@H](N(C)C)C3)s2)cc1C#N` [Compound 183], `CC(C)Oc1ccc(-c2ncc(-c3cccc4c3CC[C@@H]4NC(=O)N3CCC(N(C)C)CC3)s2)cc1C#N` [Compound 192] is higher in EC50: 500 to 5000 pM for the first, greater than 5000 pM for the second. The first is the more potent here.

`CC(C)Oc1ccc(-c2ncc(-c3cccc4c3CC[C@@H]4NS(=O)(=O)CCC(=O)O)s2)cc1C#N` [Compound 161] and `CC(C)Oc1ccc(-c2ncc(-c3cccc4c3CC[C@@H]4NS(=O)(=O)CC(=O)N3CC(O)C3)s2)cc1C#N` [Compound 163] fall in the same range of EC50: 50 to 500 pM for the first, 50 to 500 pM for the second.

`CC(C)Oc1ccc(-c2nnc(-c3cccc4c3CC[C@@H]4NC(=O)CN)s2)cc1C#N` [Compound 9] and `CC(=O)N[C@H]1CCc2c(-c3nnc(-c4ccc(OC(C)C)c(C#N)c4)s3)cccc21` [Compound 14, (S)-N-(4-(5-(3-cyano-4-isopropoxyphenyl)-1,3,4-thiadiazol-2-yl)-2,3-dihydro-1H-inden-1-yl)acetamide] fall in the same range of EC50: 50 to 500 pM for the first, 50 to 500 pM for the second.

`CC(C)Oc1ccc(-c2ccc(-c3cccc4c3CC[C@H]4N)s2)cc1C#N` [Compound 225, (R)-5-(5-(1-amino-2,3-dihydro-1H-inden-4-yl)thiophen-2-yl)-2-isopropoxybenzonitrile] and `CC(C)Oc1ccc(-c2ccc(-c3cccc4c3CCC4NCCO)s2)cc1C#N` (stereo not drawn) [Compound 224, 5-(5-(1-(2-hydroxyethylamino)-2,3-dihydro-1H-inden-4-yl)thiophen-2-yl)-2-isopropoxybenzonitrile] cannot be ordered by EC50: greater than 5000 pM for the first, greater than 5000 pM for the second.

First: CC(C)Oc1ccc(-c2ncc(-c3cccc4c3CC[C@@H]4NCC(=O)N3CCCC3)s2)cc1C#N [Compound 101]
Second: CC(C)Oc1ccc(-c2ncc(-c3cccc4c3CC[C@@H]4NC(=O)N3CCC[C@H](O)C3)s2)cc1C#N [Compound 199]
The EC50 of the first is higher: greater than 5000 pM for the first, 50 to 500 pM for the second. The second is the more potent here.

Compared with `CC(C)Oc1ccc(-c2nnc(-c3cccc4c3CC[C@@H]4NCC(=O)N(C)C)s2)cc1C#N` [Compound 21, (S)-2-((4-(5-(3-cyano-4-isopropoxyphenyl)-1,3,4-thiadiazol-2-yl)-2,3-dihydro-1H-inden-1-yl)amino)-N,N-dimethylacetamide hydrochloride], `CC(C)Oc1ccc(-c2nnc(-c3cccc4c3CCC4O)s2)cc1C#N` (stereo in doubt) [Compound 2, (R)-5-(5-(1-hydroxy-2,3-dihydro-1H-inden-4-yl) -1,3,4-thiadiazol-2-yl)-2-isopropoxybenzonitrile] is lower in EC50: 500 to 5000 pM for the first, 50 to 500 pM for the second.

Going from `CC(C)Oc1ccc(-c2ncc(-c3cccc4c3CC[C@@H]4NS(=O)(=O)CCN3CCNCC3)s2)cc1C#N` [Compound 151] to `CC(C)Oc1ccc(-c2ncc(-c3cccc4c3CC[C@@H]4NS(=O)(=O)CCC(=O)O)s2)cc1C#N` [Compound 160], the EC50 falls from greater than 5000 pM to less than 50 pM.
